From PubChem BioAssay (NCI)
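Dose response: 5 concentrations. Exposure: 48 h. Format: 96-well plates. Endpoint: linear interpolation; highest concentration if not reached. TGI is the concentration that stops growth completely.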

Experiments:
Experiment in all cases: NCI anticancer screen, dose series, 48 h
CCRF-CEM leukemia = test system: CCRF-CEM leukemia
DLD-1 colon = test system: DLD-1 colon
DMS 114 small cell lung = test system: DMS 114 small cell lung
DMS 273 small cell lung = test system: DMS 273 small cell lung
HOP-18 NSCLC = test system: HOP-18 NSCLC
KM20L2 colon = test system: KM20L2 colon
LXFL 529 NSCLC = test system: LXFL 529 NSCLC
M19-MEL melanoma = test system: M19-MEL melanoma
OVCAR-3 ovarian = test system: OVCAR-3 ovarian
SNB-78 CNS = test system: SNB-78 CNS
T-47D breast = test system: T-47D breast
XF 498 CNS = test system: XF 498 CNS

Compound: COc1cc([C@@H]2c3cc4c(cc3[C@@H](NC(=O)c3cccc(F)c3)C3COC(=O)[C@@H]32)OCO4)cc(OC)c1O (some centres undefined)
- TGI (CCRF-CEM leukemia): > 100 µM
- TGI (DLD-1 colon): 25.4 µM
- TGI (DMS 114 small cell lung): 5.2 µM
- TGI (DMS 273 small cell lung): 11.3 µM
- TGI (HOP-18 NSCLC): > 100 µM
- TGI (KM20L2 colon): 6.89 µM
- TGI (LXFL 529 NSCLC): > 100 µM
- TGI (M19-MEL melanoma): 41.4 µM
- TGI (OVCAR-3 ovarian): 17.4 µM
- TGI (SNB-78 CNS): > 100 µM

Compound: C=CCN(C)CN(C)c1nc(N(C)C)nc(N(C)C)n1
- TGI (CCRF-CEM leukemia): > 100 µM
- TGI (DLD-1 colon): > 100 µM
- TGI (DMS 114 small cell lung): 42.7 µM
- TGI (DMS 273 small cell lung): > 100 µM
- TGI (HOP-18 NSCLC): > 100 µM
- TGI (KM20L2 colon): > 100 µM
- TGI (LXFL 529 NSCLC): 89 µM
- TGI (M19-MEL melanoma): > 100 µM
- TGI (OVCAR-3 ovarian): > 100 µM
- TGI (SNB-78 CNS): > 100 µM

Compound: CC#CCCN(CC#N)Cc1ccccc1
- TGI (CCRF-CEM leukemia): > 100 µM
- TGI (T-47D breast): > 100 µM

Compound: CC(=O)OC1CC[C@]2(C)C3CC[C@@]4(C)C(CCC4[C@H](C)CCCC(C)C)[C@@H]3CCC2(Br)C1 (some centres undefined)
- TGI (CCRF-CEM leukemia): 27.3 µM
- TGI (OVCAR-3 ovarian): 42.5 µM
- TGI (T-47D breast): > 50 µM

Compound: Cc1ccc(S(=O)(=O)N2CCCC2C(=O)O[C@H]2CC[C@H]3CC=C[C@H]32)cc1 (some centres undefined)
- TGI (CCRF-CEM leukemia): > 100 µM
- TGI (OVCAR-3 ovarian): > 100 µM
- TGI (T-47D breast): > 100 µM

Compound: COc1ccc([C@@]23OC[C@@H]4[C@@H](OC[C@@H]42)c2cc(OC)c(OC)cc23)cc1OC
- TGI (OVCAR-3 ovarian): > 100 µM
- TGI (T-47D breast): > 100 µM

Compound: Cc1ccc(/C=C/C(=N/NC(=O)N/N=C(/C=C/c2ccc(C)cc2)C(C)(C)CN2CCCCC2)C(C)(C)CN2CCCCC2)cc1
- TGI (CCRF-CEM leukemia): 3.08 µM
- TGI (OVCAR-3 ovarian): 3.07 µM
- TGI (T-47D breast): 4.02 µM

Compound: O=C1CC(=O)N(CCc2ccccc2)S(=O)(=O)N1CCc1ccccc1
- TGI (CCRF-CEM leukemia): 35 µM
- TGI (DLD-1 colon): > 100 µM
- TGI (DMS 114 small cell lung): 48.6 µM
- TGI (DMS 273 small cell lung): 43.8 µM
- TGI (HOP-18 NSCLC): > 100 µM
- TGI (LXFL 529 NSCLC): 40.7 µM
- TGI (M19-MEL melanoma): > 100 µM
- TGI (OVCAR-3 ovarian): 36.8 µM

Compound: C[C@]12[C@@H]3CC[C@H]1[C@@H](OC(=O)Nc1cc([N+](=O)[O-])cc([N+](=O)[O-])c1)C(=O)N2CC3
- TGI (CCRF-CEM leukemia): > 100 µM
- TGI (T-47D breast): > 100 µM

Compound: CN(CCCNC(=O)c1nn(-c2ccc(Cl)cc2Cl)c2c1ccc1ccccc12)CCCNC(=O)c1nn(-c2ccc(Cl)cc2Cl)c2c1ccc1ccccc12
- TGI (CCRF-CEM leukemia): 5.7 µM
- TGI (OVCAR-3 ovarian): 3.14 µM
- TGI (T-47D breast): 3.73 µM

Compound: CC1OC(OC2C(O)COC(OC3C(C)OC(OC4C(OC(=O)[C@]56CCC(C)(C)C[C@@H]5C5=CCC7[C@@]8(C)C[C@H](O)[C@H](OC9OC(CO)C(O)C(OC%10OC(CO)C(O)C(O)C%10O)C9O)[C@@](C)(CO)[C@@H]8CC[C@@]7(C)[C@]5(C)CC6)OCC(O)C4O)C(O)C3O)C2O)C(O)C(O)C1O (some centres undefined)
- TGI (CCRF-CEM leukemia): 32.6 µM
- TGI (OVCAR-3 ovarian): 29.4 µM
- TGI (T-47D breast): 35.5 µM

Compound: O=C(c1cccc(C(=O)c2ccc3c4c(cccc24)C(=O)N(c2ccccc2)C3=O)c1)c1ccc2c3c(cccc13)C(=O)N(c1ccccc1)C2=O
- TGI (OVCAR-3 ovarian): > 100 µM

Compound: COc1ccc2c(c1)CCC1=CC3(CCC12C)SCCS3 (centres undefined)
- TGI (CCRF-CEM leukemia): > 10 µM
- TGI (OVCAR-3 ovarian): 7.71 µM
- TGI (T-47D breast): > 10 µM

Compound: O=c1[nH]n(Cc2ccccn2)c2ccc([N+](=O)[O-])cc12
- TGI (CCRF-CEM leukemia): > 100 µM
- TGI (OVCAR-3 ovarian): > 100 µM

Compound: Clc1nc2n(c1/C=C/c1cccs1)CCS2
- TGI (CCRF-CEM leukemia): 46.6 µM
- TGI (OVCAR-3 ovarian): 87.9 µM
- TGI (T-47D breast): 69.3 µM

Compound: O=C(CCN1CCOCC1)Nc1ccc2sc3ccccc3c(=O)c2n1
- TGI (CCRF-CEM leukemia): > 100 µM
- TGI (OVCAR-3 ovarian): > 100 µM
- TGI (T-47D breast): > 100 µM

Compound: N#CCCN(CCN(C(=O)Nc1ccccc1)c1ccccc1)C(=O)Nc1ccccc1
- TGI (CCRF-CEM leukemia): 47.7 µM
- TGI (OVCAR-3 ovarian): > 100 µM
- TGI (T-47D breast): > 100 µM

Compound: C=C(Cl)C(=C)CCC(Cl)C(C)C (centres undefined)
- TGI (CCRF-CEM leukemia): > 100 µM
- TGI (OVCAR-3 ovarian): > 100 µM

Compound: NC(=Nc1ccc(O)cc1)S(=O)O
- TGI (CCRF-CEM leukemia): > 100 µM
- TGI (OVCAR-3 ovarian): > 100 µM
- TGI (T-47D breast): > 100 µM

Compound: Cc1ccc(S(=O)(=O)NC(=O)Nc2ccc(S(N)(=O)=O)cc2S(N)(=O)=O)cc1
- TGI (CCRF-CEM leukemia): > 100 µM
- TGI (OVCAR-3 ovarian): > 100 µM

Compound: CC(=O)NNc1nc(C)c(C(/C=C/c2ccc(Cl)cc2)=N/NC(=O)C[N+](C)(C)C)s1
- TGI (CCRF-CEM leukemia): > 100 µM
- TGI (DLD-1 colon): > 100 µM
- TGI (DMS 114 small cell lung): > 100 µM
- TGI (DMS 273 small cell lung): > 100 µM
- TGI (HOP-18 NSCLC): > 100 µM
- TGI (KM20L2 colon): > 100 µM
- TGI (LXFL 529 NSCLC): > 100 µM
- TGI (M19-MEL melanoma): > 100 µM
- TGI (OVCAR-3 ovarian): > 100 µM

Compound: COc1cc2cc(C(=O)N3CC(CCl)c4ccccc43)[nH]c2c(OC)c1OC (centres undefined)
- TGI (CCRF-CEM leukemia): > 100 µM
- TGI (OVCAR-3 ovarian): > 100 µM
- TGI (T-47D breast): > 89.4 µM

Compound: Cn1ncnc1CCc1ccccc1
- TGI (CCRF-CEM leukemia): > 100 µM
- TGI (DMS 114 small cell lung): > 100 µM
- TGI (DMS 273 small cell lung): > 100 µM
- TGI (HOP-18 NSCLC): > 100 µM
- TGI (KM20L2 colon): > 100 µM
- TGI (LXFL 529 NSCLC): > 100 µM
- TGI (M19-MEL melanoma): > 100 µM
- TGI (OVCAR-3 ovarian): > 100 µM
- TGI (SNB-78 CNS): > 100 µM

Compound: CC1(C)CC(=O)c2c(nc(SSc3nc4c(c(-c5ccccc5)c3C#N)C(=O)CC(C)(C)C4)c(C#N)c2-c2ccccc2)C1
- TGI (CCRF-CEM leukemia): > 10 µM
- TGI (OVCAR-3 ovarian): > 10 µM
- TGI (T-47D breast): > 10 µM

Compound: O=C(/C=C/c1ccc(O)c(O)c1O)OCCc1ccccc1
- TGI (OVCAR-3 ovarian): 46.5 µM
- TGI (T-47D breast): > 100 µM

Compound: CC(=O)Nc1ccc(C(=O)NN2C(=O)C(Cl)C2c2ccccc2O)cc1 (centres undefined)
- TGI (CCRF-CEM leukemia): > 100 µM
- TGI (DLD-1 colon): > 100 µM
- TGI (DMS 273 small cell lung): > 100 µM
- TGI (KM20L2 colon): > 100 µM
- TGI (LXFL 529 NSCLC): > 100 µM
- TGI (OVCAR-3 ovarian): 90.3 µM
- TGI (XF 498 CNS): > 100 µM

Compound: O=C(c1ccc(Br)cc1)n1c2ccc(Br)cc2c2nc3ccccc3nc21
- TGI (CCRF-CEM leukemia): > 100 µM
- TGI (OVCAR-3 ovarian): > 100 µM
- TGI (T-47D breast): > 100 µM

Compound: Cc1cc(OCC(=O)N/N=C/C(Br)=C/c2ccccc2)nc(SCC(=O)N/N=C/C(Br)=C/c2ccccc2)n1
- TGI (CCRF-CEM leukemia): > 100 µM
- TGI (OVCAR-3 ovarian): > 100 µM

Compound: C=CC[C@@H]1C(=O)[C@@]2(O[Si](C(C)C)(C(C)C)C(C)C)CC[C@@H]1C[C@H]2NC(=O)OCC(Cl)(Cl)Cl
- TGI (CCRF-CEM leukemia): > 100 µM
- TGI (OVCAR-3 ovarian): > 100 µM
- TGI (T-47D breast): > 100 µM

Compound: NC(N)=NCCCC(NC(=O)OCCCCCCn1ccc(N)nc1=O)C(=O)O (centres undefined)
- TGI (CCRF-CEM leukemia): > 100 µM
- TGI (OVCAR-3 ovarian): > 100 µM
- TGI (T-47D breast): > 100 µM

Compound: C=CCNC1=C2C[C@@H](C)C[C@@H](OC)[C@H](OC(=O)CN)[C@H](C)/C=C(\C)[C@@H](OC(N)=O)[C@H](OC)/C=C\C=C(/C)C(=O)NC(=CC1=O)C2=O
- TGI (CCRF-CEM leukemia): > 29.8 µM
- TGI (OVCAR-3 ovarian): 7.41 µM
- TGI (T-47D breast): > 25.5 µM

Compound: COc1ccc(/C=C2\N=C(NN)N=C2Cl)cc1
- TGI (CCRF-CEM leukemia): > 100 µM
- TGI (OVCAR-3 ovarian): > 100 µM
- TGI (T-47D breast): > 100 µM

Compound: COC(=O)[C@@H]1C[C@H]([Se]c2ccccc2)CN1C(=O)OCc1ccccc1
- TGI (CCRF-CEM leukemia): > 100 µM
- TGI (OVCAR-3 ovarian): 67.1 µM
- TGI (T-47D breast): > 100 µM
